Values of other authors, collected in patent publication US4195171A, “Derivatives of an antibiotic XK-62-2 and process for the production thereof” (Abbott Laboratories, priority 1975, dated 1980).

Settings: cited from earlier work

## CNCC1CCC(N)C(OC2C(N)CC(N)C(OC3OCC(C)(O)C(NC)C3O)C2O)O1 (centres unmarked) [XK-62-2]
acetone
  solubility in acetone: slightly soluble
benzene
  solubility in benzene: insoluble
chloroform
  solubility in chloroform: insoluble
ethanol
  solubility in ethanol: slightly soluble
Ethyl acetate
  solubility in ethyl acetate: insoluble
methanol
  solubility in methanol: freely soluble
n-hexane
  solubility in n-hexane: insoluble
water
  solubility in water: freely soluble
